According to patent publication US20240016822A1, “USE OF NK1 ANTAGONIST PRODRUG COMPOUND IN COMBINATION WITH 5-HT3 RECEPTOR ANTAGONIST” (Shanghai Shengdi Pharmaceutical Co., Ltd., priority 2020, published 2024):
Like-named read-outs stand apart in the source and are kept apart here.

Legend:
[1] = Pharmacokinetic test in cynomolgus monkeys; format: in vivo
Experimental: With cynomolgus monkeys as test animals, the plasma concentrations of the compound of formula (I) at different time points after administration by injection were determined by LC/MS/MS. The pharmacokinetic performance of the compound was studied in cynomolgus monkeys and its pharmacokinetic characteristics were evaluated.
A certain amount of the test compound was weighed and prepared into a solution at pH 4.0 with 20 mmol/L sodium dihydrogen phosphate for later use. • 1.1 Administration Intravenous drip, injection time: about 30 min, administration dose: 3.54 mg/kg, administration concentration: […], and administration volume: 5 mL/kg. • 1.2 Operation
Blood was collected from femoral vein before administration and 5 min, 0.25 h, 0.5 h, 1 h, 2 h, 4 h, 6 h, 8 h, 10 h and 24 h after administration, about 0.6 mL for each sample. The blood samples were anticoagulated with sodium heparin and placed on ice immediately after collection. The blood samples were placed in marked centrifuge tubes after collection, and plasma was isolated by centrifugation (centrifugation conditions: 2200 g of centrifugal force, 10 min, 2-8° C.).
The contents of the compound of formula (I) and rolapitant in the plasma samples were determined by LC/MS/MS. • 1.3 Pharmacokinetic parameters

red blood cells (RBCs) = experiment: Hemolytic effect on rabbit red blood cell suspension; format: cell-based; settings: 2% rabbit RBC suspension; test sample in PBS (pH 7.4 or pH 5), 0.4-2 mg/mL; concentration up to 2 mg/mL
Experimental: 10 mL of red blood cells (RBCs) were randomly collected from the jugular vein or central auricular artery of a rabbit (EDTA whole blood), placed in a conical flask with glass beads, and shaken for 10 min to remove fibrinogen, resulting in defibrinated blood. 10 volumes of sodium chloride injection were added. The mixture was shaken uniformly and centrifuged at 1500 rpm for 10 min, and the supernatant was removed. […] The obtained red blood cells were prepared into 2% (v/v) suspension with sodium chloride injection for later use.
A test sample (the compound of formula (I)) was dissolved in PBS (pH 7.4 or pH 5), and the solution was filtered and prepared to the concentrations of 0.4 mg/mL, 0.8 mg/mL, 1.2 mg/mL, 1.6 mg/mL, and 2 mg/mL for later use.
A certain amount of the test sample solution was added to the above […] for testing in the supernatant.
The hemolytic effect of the compound provided by the present disclosure was determined by this method.
Rolapitant emulsion (formula: 4.4% polyethylene glycol 15-hydroxystearate, 1.1% medium chain triglyceride, and 0.66% soybean oil) was prepared by reference to the method described in CN102573475, and prepared with PBS to concentrations of 0.18 mg/mL, 0.09 mg/mL, 0.045 mg/mL, 0.023 mg/mL, 0.011 mg/mL, […] for later use.
The hemolytic effect was determined by the method described in Test Example 2.

[2] = Water solubility at different pH values; format: physicochemical
Experimental: • 1.1 Preparation of reagent • Reagent: NaH2PO4·2H2O • 1.2 Preparation method
The preparation according to 100 mL specification is as follows: • pH=3.0: phosphate buffer: 100 mL of 2 mmol/L NaH2PO4, adjusted to pH 3.0 with 0.1 M H3PO4. • pH=4.0: phosphate buffer: 100 mL of 2 mmol/L NaH2PO4, […] 100 mL of 2 mmol/L Na2HPO4, adjusted to pH 9.0 with 0.1 M NaOH. • 1.3 Test method
A proper amount of a test compound was weighed, and the solution was added in small batches. The mixture was stirred until the test compound was dissolved. The content of the compound in the solution was determined. The data are shown in Table 1. • 2.1 Stability test of compound
1 mg of the sample was weighed and added to a vial. The vial was placed in a vacuum bag, which was vacuumized and placed in a container filled with allochroic silica gel. The container was sealed. Two parts were prepared in parallel. Adequate parts were prepared according to sampling time points, and the two parts for each sampling time point were placed at 4° C. and room temperature, respectively. The solubility of the compound of formula (I) was determined at different pH values.

half-life ([1]; cynomolgus monkey, analyte compound of formula (I) in plasma, intravenous drip about 30 min, 3.54 mg/kg compound of formula (I)): 28.2 min
AUC(0-t) ([1]; cynomolgus monkey, analyte compound of formula (I) in plasma, intravenous drip about 30 min, 3.54 mg/kg compound of formula (I), read-out: AUC0-24 h): 1430 ng·h/mL
MRT inf ([1]; cynomolgus monkey, analyte compound of formula (I) in plasma, intravenous drip about 30 min, 3.54 mg/kg compound of formula (I), read-out: MRT 0-∞): 15.6 min
solubility ([2]; pH 7.4, thermodynamic from solid, pH 7.4, read-out: Saturated solubility): 19.8 mg/mL
solubility ([2]; pH 7.4, thermodynamic from solid, pH 7.4, read-out: Solubility): 26 mg/mL
solubility ([2]; phosphate buffer, pH 9, aqueous buffer, thermodynamic from solid, pH 9.0, read-out: Saturated solubility): 21.4 mg/mL
solubility ([2]; phosphate buffer, pH 9, aqueous buffer, thermodynamic from solid, pH 9.0, read-out: Solubility): 28 mg/mL
Structure (SMILES): C[C@@H](OC[C@@]1(c2ccccc2)CC[C@]2(CCC(=O)N2)CN1C(=O)OCOP(=O)(O)O)c1cc(C(F)(F)F)cc(C(F)(F)F)c1 [compound of formula (I)]
Conversion of prodrug into active metabolite rolapitant ([1]; cynomolgus monkeys, intravenous drip 3.54 mg/kg): quickly converted into the active metabolite rolapitant
Hemolytic effect (red blood cells (RBCs)): no hemolytic effect
